In patent US9598441B2, “Therapeutic compounds and methods” (Wayne State University, priority 2011, dated 2017):

Biological target: T1, endogenous interaction between CARP-1 and APC-2 in MDA-MB-468 HBC cells (Homo sapiens, UniProt Q8IX12)
T1 construct: endogenous in cells; host or cells: MDA-MB-468 human breast cancer cells
T1 sequence (Q8IX12 1-1150): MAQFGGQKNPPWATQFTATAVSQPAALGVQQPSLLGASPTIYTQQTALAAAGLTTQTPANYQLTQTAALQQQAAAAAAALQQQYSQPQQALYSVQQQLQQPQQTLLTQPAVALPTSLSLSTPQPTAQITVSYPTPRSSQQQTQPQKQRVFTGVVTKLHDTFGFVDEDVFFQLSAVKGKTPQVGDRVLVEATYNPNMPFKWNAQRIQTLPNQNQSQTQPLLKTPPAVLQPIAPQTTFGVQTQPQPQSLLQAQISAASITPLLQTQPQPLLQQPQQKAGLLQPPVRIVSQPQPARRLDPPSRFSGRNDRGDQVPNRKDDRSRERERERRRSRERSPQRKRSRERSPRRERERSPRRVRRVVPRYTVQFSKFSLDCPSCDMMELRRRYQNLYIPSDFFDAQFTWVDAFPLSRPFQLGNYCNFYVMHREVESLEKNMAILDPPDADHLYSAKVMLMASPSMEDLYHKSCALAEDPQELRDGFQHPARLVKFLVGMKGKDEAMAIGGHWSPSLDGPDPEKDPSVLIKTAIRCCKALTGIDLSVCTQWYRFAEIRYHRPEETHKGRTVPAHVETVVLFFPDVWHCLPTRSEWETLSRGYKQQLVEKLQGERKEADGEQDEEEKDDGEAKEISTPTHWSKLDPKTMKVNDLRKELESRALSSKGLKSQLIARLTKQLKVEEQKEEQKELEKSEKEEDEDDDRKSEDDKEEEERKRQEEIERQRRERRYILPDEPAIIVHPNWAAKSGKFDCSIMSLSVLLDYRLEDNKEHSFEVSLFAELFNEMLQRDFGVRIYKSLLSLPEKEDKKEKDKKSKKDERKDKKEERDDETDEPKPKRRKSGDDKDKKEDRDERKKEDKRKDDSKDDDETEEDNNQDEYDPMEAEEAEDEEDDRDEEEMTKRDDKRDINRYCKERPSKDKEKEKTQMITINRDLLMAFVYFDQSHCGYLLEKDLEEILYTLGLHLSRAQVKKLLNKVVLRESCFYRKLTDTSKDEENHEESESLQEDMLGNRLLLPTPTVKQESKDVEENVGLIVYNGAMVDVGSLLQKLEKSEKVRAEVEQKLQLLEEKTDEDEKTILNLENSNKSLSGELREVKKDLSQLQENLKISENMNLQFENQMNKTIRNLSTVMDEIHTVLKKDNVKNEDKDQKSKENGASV
Test: IP-WB of endogenous CARP-1/APC-2 interaction in treated cells
Assay type: cell-based
Conditions: escalating doses, 12 h
Protocol: FIGS. 2A-2D: Identification of small molecular antagonists of CARP-1 binding with APC-2. 2A, FP assay for CARP-1-APC-2 binding. Increasing concentrations of fluorescein-tagged A-epitope peptide [CARP-1 (951-980)] were incubated with the indicated quantities of the Gst-APC-2(685-754) proteins in assay buffer containing 0.01% triton-X100. Gst-NEMO (221-317) was included as a negative control. mP, millipolarization units. 2B, chemical structures of inhibitors of CARP-1 binding with APC-2 identified from HTS. CFM, CARP-1 Functional Mimetic; CFM-1, (Z)-5-(5-bromo-7-methyl-2-oxoindolin-3-ylidene)-2-thioxothiazolidin-4-one; CFM-4,1-(2-chlorobenzyl)-5′-phenyl-3′H-spiro[indoline-3,2′-[1,3,4]thiadiazol]-2-one; CFM-5,5-bromo-1-phenethyl-5′-phenyl-3′H-spiro[indoline-3,2′-[1,3,4]thiadiazol]-2-one. 2C, CFM-4 and CFM-5 bind CARP-1. […] The complexes were analyzed by SDS-PAGE followed by WB with the noted antibodies. […] Immunoprecipitates or the respective cell lysates were analyzed by WB with noted antibodies as in FIG. 1A. […]
Logarithmically growing cells were either untreated or treated with different agents for various time periods. […] The cell growth inhibition was assessed by using MTT assay. […] The assessment of the live cells was derived by measuring the absorbance of the converted dye at wavelength of 570 nm. […]

O=C1N(Cc2ccccc2Cl)c2ccccc2C12NN=C(c1ccccc1)S2 (stereo not shown) [CFM-4, 1-(2-chlorobenzyl)-5′-phenyl-3′H-spiro[indoline-3,2′-[1,3,4]thiadiazol]-2-one]
Binding of CARP-1 with APC-2 in cells (IP-WB): declined in the presence of CFM-4 in a dose-dependent manner
